Test results from patent US7713960B2, “Inhibition of the Raf/Mek/P-Erk pathway for treating cancer” (University of South Florida, priority 2005, dated 2010).
Structures can show the parent of a compound that is named as a salt.

Assays:
ACHN cells = assay: Anchorage-dependent growth (MTT assay), ACHN; type: cell-based, human
Method: MTT Assay—2000 cells per well were plated into 96 well tissue culture plates, and the cells were allowed to attach overnight at 37° C. with 10% CO2. Cells were then treated with increasing concentrations of ARA-211, or vehicle (DMSO) and incubated for four days. At that time treatment medium was removed and replaced with 100 μl of lmg/ml MTT (Sigma-Aldrich, St. Louis, Mo.) in media and incubated at 37° C., 10% CO2 for 3 hours. After 3 hours the MTT media was removed and replaced with 100 μl/well of DMSO, rocked at room temperature for 5 minutes, then absorbance read at 540 nm on a micro-plate reader.

MDA-MB-231 cells = assay: Immunohistochemistry of MDA-MB-231 xenograft tumors (P-Erk 1/2, Tunel, Ki-67); type: in vivo, nude mice; conditions: 75 mpk/day, tumors removed on day 12
Source text: Anti-tumor activity in nude mouse xenograft model—Female athymic nude (nu/nu) mice, 5-6 weeks old, were purchased from Charles River (Wilmington, Mass.) and allowed to acclimate in the animal facility for one week. After harvesting, A-549, SNB-19, ACHN, and HCT-116 cells were, resuspended in sterile PBS, and injected s.c. into the right and left flanks (10×10^6 cells per flank) of the mice as previously described (Sun et al., 2005). For MDA-MB-231, cells were harvested and resuspended in PBS (10×10^6 cells per 50 μl) and an equal volume of Matrigel (BD Biosciences, San Jose, Calif.). 100 μl of MDA-MB-231 cells in PBS/Matrigel were injected s.c. into the mammary fat pads between the 2nd and 3rd nipples on each side of the mice. Once the tumors reached approximately 200-300 mm^3 the mice were randomized and treated i.p. with 0.1 ml vehicle (PBS) or ARA-211. Each treatment group consisted of five mice (2 tumors per mouse, a total of 10 tumors). The tumor volumes were determined by measuring the length (l) and width (w) and calculating the volume (V=w^2l/2). Statistical significance between the control and treated animals was determined using a student's t test. Immunohistochemisty (IHC) and slide quantitation—Upon completion of the xenograft study, mice were euthanized and the tumors were removed and fixed in 10% buffered formalin for at least 24 hours. […] The IHC slides were analyzed at the Analytical Microscopy Core facility of the H. Lee Moffitt Cancer Center & Research Institute. The Ariol SL-50 automated image analysis system (Applied Imaging, Santa Clara, Calif.) was used for quantitation of each slide as previously described (Jiang et al., 2004). Briefly, high-resolution digital pictures were taken of the entire stained area of each slice of tumor tissue for automatic staining quantitation. […] Each slide analyzed consisted of 54,000 to 160,000 cells analyzed depending on the size of the tumor when resected. Significance of the quantitation was analyzed by a two-tailed student's t-test.

Mek-1 = target: T1, Mek-1 (Homo sapiens, UniProt Q02750); assay: In vitro kinase assay, Mek-1 immunoprecipitated from MDA-MB-231 cells; type: biochemical; conditions: immunoprecipitated kinase treated in vitro, 10 μM
T1 construct: c-Raf-1 and Mek-1, immunoprecipitated from MDA-MB-231 cells; endogenous in cells; host or cells: MDA-MB-231
T1 sequence (Q02750 whole entry): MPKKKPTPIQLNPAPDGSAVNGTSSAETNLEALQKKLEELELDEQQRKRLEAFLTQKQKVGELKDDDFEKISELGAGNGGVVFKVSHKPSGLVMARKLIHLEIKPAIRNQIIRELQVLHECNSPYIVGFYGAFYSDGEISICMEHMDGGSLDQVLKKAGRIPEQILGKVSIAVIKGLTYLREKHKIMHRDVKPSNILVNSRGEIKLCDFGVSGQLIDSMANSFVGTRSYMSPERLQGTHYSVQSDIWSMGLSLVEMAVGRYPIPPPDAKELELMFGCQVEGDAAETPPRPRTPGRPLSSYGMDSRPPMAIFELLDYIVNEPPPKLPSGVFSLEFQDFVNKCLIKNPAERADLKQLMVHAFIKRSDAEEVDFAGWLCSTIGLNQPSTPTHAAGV
Method: In Vitro Kinase Assays—MDA-MB-231 cells (2×10^6) were lysed for 30 minutes at 4° C. in RIPA-150 buffer (10 mM Tris pH 7.5, 150 mM NaCl, 10% glycerol, 5 mM EDTA, 1% Triton X-100, 0.1% SDS, 100 μM sodium orthovanadate, 1 μM aprotinin, 10 μM leupeptin, 10 μM antipain). Cell debris was pelleted at 13000 rpm for 15 minutes at 4° C. and the lysate was rocked overnight with 10 μg of either c-Raf or MEK antibodies (Santa Cruz Biotechnologies, Santa Cruz, Calif.). 25 μl of protein A/G PLUS agarose (Santa Cruz Biotechnology) was then added and rocked for 4 hours at 4° C. Samples were spun at 2000 rpm for 5 minutes to collect the agarose beads, which were then washed four times with lysis buffer. On the final wash each pellet was divided into 5. […]

in vitro Mek-1 kinase activity (Mek-1): did not inhibit
SMILES: CC(C)(C)NCC(O)c1ccc(O)c(CO)n1 (centres unmarked) [ARA-211, 2-hydroxymethyl-3-hydroxy-6-(1-hydroxy-2-tert-butylaminoethyl) pyridine, dihydrochloride]
Anchorage Dependent Growth (% Inhibition) (ACHN cells): 62 ± 12.7% | P-Erk 1/2 levels in tumors (IHC) (MDA-MB-231 cells): suppresses P-Erk 1/2 levels | apoptosis in tumors (Tunel) (MDA-MB-231 cells): induces apoptosis | tumor cell proliferation in tumors (Ki-67) (MDA-MB-231 cells): inhibits tumor cell growth
